# Experimental data reported in patent publication US20220265817A1, “THERAPEUTIC COMPOSITIONS AND METHODS FOR TREATING HEPATITIS B” (priority 2017, published 2022).
# Legend:
# [1] = test system: HBV cccDNA-dependent precore RNA in DESHAe82 cells; experiment: DESHAe82 / DE19 cell culture system, cccDNA-derived precore RNA by qRT-PCR, MacSynergy II; format: cell-based, Hepatitis B virus; conditions: ETV μM: 0.01, 0.0032, 0.001, 0.0003, 0.0001, 3E−05, 0
# Procedure: In vitro combination studies were conducted using a modification of the assay system described in Cai et al (Antimicrobial Agents Chemotherapy, 2012. Vol 56(8):4277-88). A previously developed HepDE19 cell culture system (Guo et al. J. Virology (2007) 81(22): 12472-12484) supports HBV DNA replication and cccDNA formation in a tetracycline (Tet)-regulated manner, and produces a detectable reporter molecule which is dependent upon the production and maintenance of cccDNA.
# In the HepDE19 cell culture system, the reporters are the precore RNA and its cognate protein product, the secreted HBV “e antigen” (HBeAg). In HepDE19 cells, precore RNA and HBeAg are only produced from the cccDNA circular template, because the ORF of HBeAg and its 5′ RNA leader are separated between the opposite ends of the integrated viral genome, and only become contiguous with the formation of cccDNA. Although an assay based on the HepDE19 cell culture system is effective for determining activity, the results of high throughput screening may be complicated because the HBeAg ELISA cross reacts with a viral HBeAg homologue, which is the core antigen (HBcAg) expressed largely in a cccDNA-independent fashion in HepDE19 cells. To overcome this complication, an alternative cell culture system (designated herein as DESHAe82 cell culture system and described in PCT/EP/2015/06838) has been developed which includes an in-frame HA epitope tag in the N-terminal coding sequence of HBeAg in the transgene of DESHAe82 cells, without disrupting any cis-element critical for HBV replication, cccDNA transcription, and HBeAg secretion.
# A chemiluminescence ELISA assay (CLIA) for the detection of HA-tagged HBeAg with HA antibody serving as capture antibody and […] has been developed, eliminating the contaminating signal from HBcAg. […] In addition, a protocol for quantitative reverse transcription and polymerase chain reaction (qRT-PCR) that is specific for detection of precore RNA in either DE19 or DESHAe82 cells was developed and is also used for the detection of the cccDNA-dependent mRNA (precore RNA) that is translated to produce HBeAg or HA-HBeAg.
# To test the compound combinations, DESHAe82 or DE19 cells (as indicated in examples) were plated in 96 well tissue-culture treated microtiter plates in DMEM/F12 medium supplemented with 10% fetal bovine serum+1% penicillin-streptomycin with Tet, and incubated in a humidified incubator at 37° C. and 5% CO2 overnight. […] The two inhibitors were tested both singly as well as in combinations in a checkerboard fashion such that each test concentration of inhibitor A was combined with each test concentration of inhibitor B to determine their combination effects on inhibition of cccDNA formation and expression. Untreated negative control samples (0.5% DMSO or media only) were included on each plate in multiple wells. Following a 9 day-incubation, media was removed and cells were subjected to RNA extraction to measure the cccDNA-dependent precore mRNA level. Total cellular RNAs were extracted using a 96-well format total RNA isolation kit ([…]-NAGEL, Cat. 740466.4) by following the instruction of manufacturer (vacuum manifold processing, two more extra washes of Buffer RA4). RNA samples were eluted in RNAase-free water. Quantitative real-time RT-PCR was performed with a Roche LightCycler480 and RNA Master Hydrolysis probe (Catalog number 04991885001, Roche) using primers and conditions for specific detection of cccDNA-dependent precore RNA. GAPDH mRNA levels were also detected by standard methods and used to normalize the precore RNA levels.
# [2] = test system: HBsAg secretion in HepG2.2.15 cells; experiment: HepG2.2.15 cell culture system, HBsAg quantitation by CLIA, MacSynergy II; format: cell-based, human hepatoblastoma HepG2 cells; conditions: for Additive % Inhibition versus negative control: Trial 3, n = 4, SIRNA-NP μM: 0.0025, 0.00079, 0.00025, 7.9E−05, 2.5E−05, 0
# Procedure: In vitro combination studies were conducted using the method of Prichard and Shipman (Prichard M N, and Shipman C Jr., Antiviral Research, 1990, 14 (4-5), 181-205; and Prichard M N, et. al., MacSynergy II). The HepG2.2.15 cell culture system is a cell line derived from human hepatoblastoma HepG2 cells that have been stably transfected with the adw2-subtype HBV genome as previously explained in Sells et al. (Proc. Natl. Acad. Sci. U. S. A, 1987. Vol 84:1005-1009). HepG2.2.15 cells secrete Dane-like viral particles, produce HBV DNA, and also produce the viral proteins, hepatitis B e antigen (HBeAg) and hepatitis B surface antigen (HBsAg).
# To test the compound combinations, HepG2.2.15 (30,000 cells/well) were plated in 96 well tissue-culture treated microtiter plates in RPMI+L-Glutamine medium supplemented with 1% penicillin-streptomycin, 20 μg/mL geneticin (G418), 10% fetal bovine serum, and incubated in a humidified incubator at 37° C. and 5% CO2 overnight. […] […] The microtiter cell plates were incubated for a duration of 6 days in a humidified incubator at 37° C. and 5% CO2.
# (§1) Untreated positive control samples (0.5% DMSO in media) were included on each plate in multiple wells. Following a 6 day-incubation, media was removed from treated cells for use in an HBsAg chemiluminescence immunoassay (CLIA) (Autobio Diagnostics, Cat No. CL0310-2). An HBsAg standard curve was generated to verify that the levels of HBsAg quantification were within the detection limits of the assay. The remaining inhibitor-treated cells were assessed for cytotoxicity by determination of the intracellular adenosine triphosphate (ATP) using a Cell-Titer Glo reagent (Promega) as per manufacturers instructions and by microscopic analysis of the cells throughout the duration of inhibitor treatment. Cell viability was calculated as a percentage of the untreated positive control wells.
# The plates were read using an EnVision multimode plate reader (PerkinElmer Model 2104). […] The RLU data from the single compound treated cells were analyzed using XL-Fit module in Microsoft Excel to determine EC50 values using a 4-parameter curve fitting algorithm.
# HepG2.2.15 cells = experiment: HepG2.2.15 cytotoxicity (intracellular ATP, Cell-Titer Glo; microscopy); format: cell-based, human hepatoblastoma HepG2 cells; conditions: Trial 3, SIRNA-NP μM: 0.0025, 0.00079, 0.00025, 7.9E−05, 2.5E−05, 0
# Procedure: as §1
# hepatitis B virus (HBV) = experiment: Mouse model of HBV (pAAV/HBV1.2 hydrodynamic injection), serum HBsAg enzyme immunoassay; format: in vivo, C3H/HeN mice; conditions: HBV siRNA 1 mg/kg IV Days 0, 7, 14, poly(I:C) 20 μg HDI Day 0, mean ± SEM
# From the text: A mouse model of hepatitis B virus (HBV) was used to assess the anti-HBV effects of an immune stimulant and HBV-targeting siRNAs, both as independent treatments and in combination with each other.
# This plasmid carries a 1.2-fold overlength copy of a HBV genome and expresses HBV surface antigen (HBsAg) amongst other HBV products. Serum HBsAg expression in mice was monitored using an enzyme immunoassay. Animals were sorted (randomized) into groups based on serum HBsAg levels such that a) all animals were confirmed to express HBsAg and b) HBsAg group means were similar to each other prior to initiation of treatments.
# Animals were treated with immune stimulant as follows: On Day 0, 20 micrograms of high molecular weight polyinosinic:polycytidylic acid (poly(I:C)) was administered via HDI. Animals were treated with lipid nanoparticle (LNP)-encapsulated HBV-targeting siRNAs as follows: On each of Days 0, 7 & 14, an amount of test article equivalent to 1 mg/kg siRNA was administered intravenously. A negative control group was included as the HBsAg expression level is not completely stable in this mouse model of HBV; the absolute concentration of serum HBsAg generally declines over time in individual animals.
# The effect of the treatments was determined by collecting a small amount of blood on Days 0 (pre-treatment), 3, 7, 14 & 21 and analyzing it for serum HBsAg content. Samples were diluted as appropriate to generate values within the assay range of quantitation where possible. Individual values falling below the lower limit of quantitation (LLOQ) were set as one-half the LLOQ.
compound,measurement,setting,value
C[C@@H](NS(=O)(=O)c1ccc(F)c(C(=O)Nc2ccc(F)c(F)c2)c1)c1cncs1 [Compound 4],Average percent inhibition versus negative control (precore RNA),[1]; Compound 4 0.032 μM,−49.48%
same,Average percent inhibition versus negative control (precore RNA),[1]; Compound 4 0.100 μM,66.78%
same,Average percent inhibition versus negative control (precore RNA),[1]; Compound 4 0.317 μM,94.67%
same,Average percent inhibition versus negative control (precore RNA),[1]; Compound 4 1.001 μM,93.92%
same,Average percent inhibition versus negative control (precore RNA),[1]; Compound 4 3.165 μM,97.88%
same,Average percent inhibition versus negative control (precore RNA),[1]; Compound 4 10 μM,97.53%
COCCCOc1cc2c(cc1OC)-c1cc(=O)c(C(=O)O)cn1[C@H](C(C)C)C2 [Compound 5],EC50,"[2]; HBsAg by CLIA, trial by row: r8 1, r9 2, r10 3, read-out: Compound 5 EC50",2 nM
same,Additive % Inhibition versus negative control,[2]; Compound 5 0.0001 μM,69.99%
same,Additive % Inhibition versus negative control,[2]; Compound 5 0.000316 μM,82.39%
same,Additive % Inhibition versus negative control,[2]; Compound 5 0.001 μM,89.01%
same,Additive % Inhibition versus negative control,[2]; Compound 5 0.00316 μM,90.26%
same,Additive % Inhibition versus negative control,[2]; Compound 5 0.1 μM,86.26%
same,Additive % Inhibition versus negative control,[2]; Compound 5 1.0E−05 μM,46.36%
same,Additive % Inhibition versus negative control,[2]; Compound 5 1.00E−06 μM,22.68%
same,Additive % Inhibition versus negative control,[2]; Compound 5 3.16E−06 μM,34.18%
same,Additive % Inhibition versus negative control,[2]; Compound 5 3.17E−05 μM,56.34%
same,Avg % Cell Viability vs control,HepG2.2.15 cells; Compound 5 0.0001 μM,128%
same,Avg % Cell Viability vs control,HepG2.2.15 cells; Compound 5 0.000316 μM,131%
same,Avg % Cell Viability vs control,HepG2.2.15 cells; Compound 5 0.001 μM,141%
same,Avg % Cell Viability vs control,HepG2.2.15 cells; Compound 5 0.00316 μM,127%
same,Avg % Cell Viability vs control,HepG2.2.15 cells; Compound 5 0.1 μM,99%
same,Avg % Cell Viability vs control,HepG2.2.15 cells; Compound 5 1.0E−05 μM,140%
same,Avg % Cell Viability vs control,HepG2.2.15 cells; Compound 5 1.00E−06 μM,131%
same,Avg % Cell Viability vs control,HepG2.2.15 cells; Compound 5 3.16E−06 μM,127%
same,Avg % Cell Viability vs control,HepG2.2.15 cells; Compound 5 3.17E−05 μM,131%
polyinosinic:polycytidylic acid [Poly(I:C)],"Serum HBsAg, % of individual pre-treatment baseline (Day 0)","hepatitis B virus (HBV); Day 3, n=4 or 5",6.1 ± 1.1%
same,"Serum HBsAg, % of individual pre-treatment baseline (Day 0)",hepatitis B virus (HBV); Day 7,3.5 ± 1.1%
same,"Serum HBsAg, % of individual pre-treatment baseline (Day 0)",hepatitis B virus (HBV); Day 14,3.9 ± 1.4%
same,"Serum HBsAg, % of individual pre-treatment baseline (Day 0)",hepatitis B virus (HBV); Day 21,4.7 ± 2.3%
